Laboratory results published in US11780839B2, “Compounds for treating Huntington's disease” (PTC THERAPEUTICS, INC., priority 2018, dated 2023).
pIC50: −log10 of the molar value.

Each compound was assayed on Endogenous Huntingtin Protein (assay: Endogenous Huntingtin Protein Assay (ELISA-based Meso Scale Discovery electrochemiluminescence)). Conditions: MSD electrochemiluminescence, Table 1.
Type: cell-based
Outline: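 Sandwich MSD electrochemiluminescence immunoassay. Capture used MW1 (expanded polyglutamine) or MAB2166 antibody coated at 1 μg/mL overnight at 4 °C. Samples were bound overnight at 4 °C, then a rabbit monoclonal detection antibody and SULFO-TAG anti-rabbit, each at 0.25 μg/mL, were applied for 1 h at room temperature.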

Structure (SMILES)	pIC50
CC(C)(C)NC1CCN(c2ncc(-c3ccc(-c4ncco4)cc3O)nn2)C1 (stereo not shown) [Cpd 250, 2-{3-[3-(tert-butylamino)pyrrolidin-1-yl]-1,2,4-triazin-6-yl}-5-(1,3-oxazol-2-yl)phenol]	6.30 to 7.00
CN1CCC2(CC1)CN(c1ncc(-c3ccc(-c4nnn(C)n4)cc3O)nn1)C2 [Cpd 251, 2-[3-(7-methyl-2,7-diazaspiro[3.5]nonan-2-yl)-1,2,4-triazin-6-yl]-5-(2-methyl-2H-tetrazol-5-yl)phenol]	6.30 to 7.00
CN1CCC2(CC1)CN(c1ncc(-c3ccc(-c4ncco4)cc3O)nn1)C2 [Cpd 252, 2-[3-(7-methyl-2,7-diazaspiro[3.5]nonan-2-yl)-1,2,4-triazin-6-yl]-5-(1,3-oxazol-2-yl)phenol]	< 6.30
Cn1ccc(-c2ccc(-c3cnc(NC4CC(C)(C)NC(C)(C)C4)nn3)c(O)c2)n1 [Cpd 253, 5-(1-methyl-1H-pyrazol-3-yl)-2-{3-[(2,2,6,6-tetramethylpiperidin-4-yl)amino]-1,2,4-triazin-6-yl}phenol]	≥ 7.00
COc1cc(-c2ccc(-c3cnc(NC4CC(C)(C)NC(C)(C)C4)nn3)c(O)c2)ncn1 [Cpd 254, 5-(6-methoxypyrimidin-4-yl)-2-{3-[(2,2,6,6-tetramethylpiperidin-4-yl)amino]-1,2,4-triazin-6-yl}phenol]	≥ 7.00
CN(c1cnc(-c2ccc(-n3nccn3)cc2O)nn1)C1CC(C)(C)NC(C)(C)C1 [Cpd 255, 2-{6-[methyl(2,2,6,6-tetramethylpiperidin-4-yl)amino]-1,2,4-triazin-3-yl}-5-(2H-1,2,3-triazol-2-yl)phenol]	≥ 7.00
CN1CCC2(CC1)CN(c1ncc(-c3ccc(-c4ccc5nccn5n4)cc3O)nn1)C2 [Cpd 256, 5-(imidazo[1,2-b]pyridazin-6-yl)-2-[3-(7-methyl-2,7-diazaspiro[3.5]nonan-2-yl)-1,2,4-triazin-6-yl]phenol]	6.30 to 7.00
CN1CCC2(CC1)CN(c1ncc(-c3ccc(-c4cn5ccnc5cn4)cc3O)nn1)C2 [Cpd 257, 5-(imidazo[1,2-a]pyrazin-6-yl)-2-[3-(7-methyl-2,7-diazaspiro[3.5]nonan-2-yl)-1,2,4-triazin-6-yl]phenol]	5.52 to 6.00
CC(C)NC1CCN(c2ncc(-c3ccc(-c4c[nH]nn4)cc3O)nn2)C1 (stereo not shown) [Cpd 258, 2-(3-{3-[(propan-2-yl)amino]pyrrolidin-1-yl}-1,2,4-triazin-6-yl)-5-(1H-1,2,3-triazol-4-yl)phenol]	≥ 7.00
CC(C)NC1CCN(c2ncc(-c3ccc(-c4nnn(C)n4)cc3O)nn2)C1 (stereo not shown) [Cpd 259, 5-(2-methyl-2H-tetrazol-5-yl)-2-(3-{3-[(propan-2-yl)amino]pyrrolidin-1-yl}-1,2,4-triazin-6-yl)phenol]	6.30 to 7.00
Cn1ncc2cc(-c3ccc(-c4cnc(N[C@H]5CC(C)(C)NC(C)(C)[C@H]5F)nn4)c(O)c3)ccc21 [Cpd 260, 2-(3-{[(3S,4S)-3-fluoro-2,2,6,6-tetramethylpiperidin-4-yl]amino}-1,2,4-triazin-6-yl)-5-(1-methyl-1H-indazol-5-yl)phenol]	≥ 7.00
Cn1ccc(-c2ccc(-c3cnc(N[C@H]4CC(C)(C)NC(C)(C)[C@H]4F)nn3)c(O)c2)n1 [Cpd 261, 2-(3-{[(3S,4S)-3-fluoro-2,2,6,6-tetramethylpiperidin-4-yl]amino}-1,2,4-triazin-6-yl)-5-(1-methyl-1H-pyrazol-3-yl)phenol]	≥ 7.00

Results, then the compound that gave them:

pIC50	Structure (SMILES)
≥ 7.00	CC1CN(c2ncc(-c3ccc(-c4cn[nH]c4)cc3O)nn2)CC(C)N1 (stereo not shown) [Cpd 262, 2-[3-(3,5-dimethylpiperazin-1-yl)-1,2,4-triazin-6-yl]-5-(1H-pyrazol-4-yl)phenol]
6.30 to 7.00	CC1CN(c2ncc(-c3ccc(-c4ccn(C)n4)cc3O)nn2)CC(C)N1 (stereo not shown) [Cpd 263, 2-[3-(3,5-dimethylpiperazin-1-yl)-1,2,4-triazin-6-yl]-5-(1-methyl-1H-pyrazol-3-yl)phenol]
6.30 to 7.00	CC(C)NC1CCN(c2ncc(-c3ccc(-n4nccn4)cc3O)nn2)C1 (stereo not shown) [Cpd 264]
≥ 7.00	COc1cc(-c2ccc(-c3cnc(N4CCC(NC(C)C)C4)nn3)c(O)c2)ncn1 (stereo not shown) [Cpd 265, 5-(6-methoxypyrimidin-4-yl)-2-(3-{3-[(propan-2-yl)amino]pyrrolidin-1-yl}-1,2,4-triazin-6-yl)phenol]
≥ 7.00	Cn1ncc(-c2ccc(-c3cnc(NC4CC(C)(C)NC(C)(C)C4)nn3)c(O)c2)n1 [Cpd 266, 5-(2-methyl-2H-1,2,3-triazol-4-yl)-2-{3-[(2,2,6,6-tetramethylpiperidin-4-yl)amino]-1,2,4-triazin-6-yl}phenol]
≥ 7.00	Cn1nnc(-c2ccc(-c3cnc(NC4CC(C)(C)NC(C)(C)C4)nn3)c(O)c2)n1 [Cpd 267, 5-(2-methyl-2H-tetrazol-5-yl)-2-{3-[(2,2,6,6-tetramethylpiperidin-4-yl)amino]-1,2,4-triazin-6-yl}phenol]
≥ 7.00	CNC1CCN(c2ncc(-c3ccc(-c4cc(OC)ncn4)cc3O)nn2)C1 (stereo not shown) [Cpd 268, 5-(6-methoxypyrimidin-4-yl)-2-{3-[(methylamino)pyrrolidin-1-yl]-1,2,4-triazin-6-yl}phenol]
6.30 to 7.00	CNC1CCN(c2ncc(-c3ccc(-c4ncns4)cc3O)nn2)C1 (stereo not shown) [Cpd 269, 2-{3-[3-(methylamino)pyrrolidin-1-yl]-1,2,4-triazin-6-yl}-5-(1,2,4-thiadiazol-5-yl)phenol]
5.52 to 6.00	CNC1CCN(c2ncc(-c3ccc(-c4ncccn4)cc3O)nn2)C1 (stereo not shown) [Cpd 270, 2-{3-[3-(methylamino)pyrrolidin-1-yl]-1,2,4-triazin-6-yl}-5-(pyrimidin-2-yl)phenol]
6.30 to 7.00	CNC1CCN(c2ncc(-c3ccc(-c4cnc5c(cnn5C)c4)cc3O)nn2)C1 (stereo not shown) [Cpd 271, 2-{3-[3-(methylamino)pyrrolidin-1-yl]-1,2,4-triazin-6-yl}-5-(1-methyl-1H-pyrazolo[3,4-b]pyridin-5-yl)phenol]
6.30 to 7.00	CN1CCC2(CC1)CN(c1ncc(-c3ccc(-c4ncns4)cc3O)nn1)C2 [Cpd 272, 2-[3-(7-methyl-2,7-diazaspiro[3.5]nonan-2-yl)-1,2,4-triazin-6-yl]-5-(1,2,4-thiadiazol-5-yl)phenol]
≥ 7.00	CC1(C)CC(Nc2ncc(-c3ccc(-n4ccnc4)cc3O)nn2)CC(C)(C)N1 [Cpd 273, 5-(1H-imidazol-1-yl)-2-{3-[(2,2,6,6-tetramethylpiperidin-4-yl)amino]-1,2,4-triazin-6-yl}phenol]
≥ 7.00	Cc1cn(-c2ccc(-c3cnc(NC4CC(C)(C)NC(C)(C)C4)nn3)c(O)c2)cn1 [Cpd 274, 5-(4-methyl-1H-imidazol-1-yl)-2-{3-[(2,2,6,6-tetramethylpiperidin-4-yl)amino]-1,2,4-triazin-6-yl}phenol]
≥ 7.00	CC1(C)CC(Nc2ncc(-c3ccc(-n4cnc(F)c4)cc3O)nn2)CC(C)(C)N1 [Cpd 275, 5-(4-fluoro-1H-imidazol-1-yl)-2-{3-[(2,2,6,6-tetramethylpiperidin-4-yl)amino]-1,2,4-triazin-6-yl}phenol]
≥ 7.00	CC1(C)CC(Nc2ncc(-c3ccc(-n4cc(F)cn4)cc3O)nn2)CC(C)(C)N1 [Cpd 276, 5-(4-fluoro-1H-pyrazol-1-yl)-2-{3-[(2,2,6,6-tetramethylpiperidin-4-yl)amino]-1,2,4-triazin-6-yl}phenol]
≥ 7.00	Cc1ncc(-c2ccc(-c3cnc(NC4CC(C)(C)NC(C)(C)C4)nn3)c(O)c2)o1 [Cpd 277, 5-(2-methyl-1,3-oxazol-5-yl)-2-{3-[(2,2,6,6-tetramethylpiperidin-4-yl)amino]1,2,4-triazin-6-yl}phenol]
